≈ marks a conversion by molar mass, not a printed value.
Assays:
HCT-116 = assay: Cytotoxicity against human HCT-116 cells assessed as cell growth inhibition incubated for 72 hrs by celltiter 96 aqueous cell proliferation assay; assay type: functional, cell-based; details: HCT-116, 72 h
A549 [1] = assay: Cytotoxicity against human A549 cells incubated for 72 hrs by MTT assay; assay type: functional, cell-based; details: A549, 72 h
K562 = assay: Cytotoxicity against human K562 cells; assay type: functional, cell-based
Fatty acid synthase = Fatty acid synthase (Gallus gallus, UniProt P12276); assay: Inhibition of Fatty acid synthase in chicken liver using [3H]-acetyl CoA as substrate preincubated for 30 mins followed by substrate addition and measured after 10 mins in presence of NADPH by scintillation counting analysis; assay type: tissue-based
DU-145 = assay: Cytotoxicity against human DU-145 cells assessed as reduction in cell viability incubated for 48 hrs by MTS assay; assay type: functional, cell-based; details: for IC50: DU-145, 48 h; for CC50: DU-145, time 48 hrs
JIMT-1 = assay: Cytotoxicity against human JIMT-1 cells assessed as reduction in cell viability incubated for 48 hrs by MTS assay; assay type: functional, cell-based; details: for IC50: JIMT-1, 48 h; for CC50: JIMT-1, time 48 hrs
MIA PaCa-2 = assay: Cytotoxicity against human MIA PaCa-2 cells assessed as reduction in cell viability incubated for 48 hrs by MTS assay; assay type: functional, cell-based; details: for IC50: MIA PaCa-2, 48 h; for CC50: MIA PaCa-2, time 48 hrs
PC-3 = assay: Cytotoxicity against human PC-3 cells assessed as reduction in cell viability incubated for 48 hrs by MTS assay; assay type: functional, cell-based; details: for IC50: PC-3, 48 h; for CC50: PC-3, time 48 hrs
BT-474 = assay: Cytotoxicity against human BT-474 cells assessed as reduction in cell viability incubated for 48 hrs by MTS assay; assay type: functional, cell-based; details: for IC50: BT-474, 48 h; for CC50: BT-474, time 48 hrs
MDA-MB-231 = assay: Cytotoxicity against human MDA-MB-231 cells assessed as reduction in cell viability incubated for 48 hrs by MTS assay; assay type: functional, cell-based; details: for IC50: MDA-MB-231, 48 h; for CC50: MDA-MB-231, time 48 hrs
[2] = biological target: RAC-alpha serine/threonine-protein kinase (Homo sapiens, UniProt P31749); assay: Inhibition of AKT1 (unknown origin) in presence of ATP by ELISA
MCF7 = assay: Cytotoxicity against human MCF7 cells incubated for 48 hrs by MTT assay; assay type: functional, cell-based; details: MCF7, 48 h
HeLa = assay: Cytotoxicity against human HeLa cells incubated for 48 hrs by MTT assay; assay type: functional, cell-based
SGC-7901 = assay: Cytotoxicity against human SGC-7901 cells incubated for 48 hrs by MTT assay; assay type: functional, cell-based; details: SGC-7901, 48 h
HepG2 = assay: Cytotoxicity against human HepG2 cells incubated for 48 hrs by MTT assay; assay type: functional, cell-based; details: HepG2, 48 h
A549 [3] = assay: Cytotoxicity against human A549 cells incubated for 48 hrs by MTT assay; assay type: functional, cell-based; details: A549, 48 h

Fatty acid synthase, sequence (P12276 whole entry): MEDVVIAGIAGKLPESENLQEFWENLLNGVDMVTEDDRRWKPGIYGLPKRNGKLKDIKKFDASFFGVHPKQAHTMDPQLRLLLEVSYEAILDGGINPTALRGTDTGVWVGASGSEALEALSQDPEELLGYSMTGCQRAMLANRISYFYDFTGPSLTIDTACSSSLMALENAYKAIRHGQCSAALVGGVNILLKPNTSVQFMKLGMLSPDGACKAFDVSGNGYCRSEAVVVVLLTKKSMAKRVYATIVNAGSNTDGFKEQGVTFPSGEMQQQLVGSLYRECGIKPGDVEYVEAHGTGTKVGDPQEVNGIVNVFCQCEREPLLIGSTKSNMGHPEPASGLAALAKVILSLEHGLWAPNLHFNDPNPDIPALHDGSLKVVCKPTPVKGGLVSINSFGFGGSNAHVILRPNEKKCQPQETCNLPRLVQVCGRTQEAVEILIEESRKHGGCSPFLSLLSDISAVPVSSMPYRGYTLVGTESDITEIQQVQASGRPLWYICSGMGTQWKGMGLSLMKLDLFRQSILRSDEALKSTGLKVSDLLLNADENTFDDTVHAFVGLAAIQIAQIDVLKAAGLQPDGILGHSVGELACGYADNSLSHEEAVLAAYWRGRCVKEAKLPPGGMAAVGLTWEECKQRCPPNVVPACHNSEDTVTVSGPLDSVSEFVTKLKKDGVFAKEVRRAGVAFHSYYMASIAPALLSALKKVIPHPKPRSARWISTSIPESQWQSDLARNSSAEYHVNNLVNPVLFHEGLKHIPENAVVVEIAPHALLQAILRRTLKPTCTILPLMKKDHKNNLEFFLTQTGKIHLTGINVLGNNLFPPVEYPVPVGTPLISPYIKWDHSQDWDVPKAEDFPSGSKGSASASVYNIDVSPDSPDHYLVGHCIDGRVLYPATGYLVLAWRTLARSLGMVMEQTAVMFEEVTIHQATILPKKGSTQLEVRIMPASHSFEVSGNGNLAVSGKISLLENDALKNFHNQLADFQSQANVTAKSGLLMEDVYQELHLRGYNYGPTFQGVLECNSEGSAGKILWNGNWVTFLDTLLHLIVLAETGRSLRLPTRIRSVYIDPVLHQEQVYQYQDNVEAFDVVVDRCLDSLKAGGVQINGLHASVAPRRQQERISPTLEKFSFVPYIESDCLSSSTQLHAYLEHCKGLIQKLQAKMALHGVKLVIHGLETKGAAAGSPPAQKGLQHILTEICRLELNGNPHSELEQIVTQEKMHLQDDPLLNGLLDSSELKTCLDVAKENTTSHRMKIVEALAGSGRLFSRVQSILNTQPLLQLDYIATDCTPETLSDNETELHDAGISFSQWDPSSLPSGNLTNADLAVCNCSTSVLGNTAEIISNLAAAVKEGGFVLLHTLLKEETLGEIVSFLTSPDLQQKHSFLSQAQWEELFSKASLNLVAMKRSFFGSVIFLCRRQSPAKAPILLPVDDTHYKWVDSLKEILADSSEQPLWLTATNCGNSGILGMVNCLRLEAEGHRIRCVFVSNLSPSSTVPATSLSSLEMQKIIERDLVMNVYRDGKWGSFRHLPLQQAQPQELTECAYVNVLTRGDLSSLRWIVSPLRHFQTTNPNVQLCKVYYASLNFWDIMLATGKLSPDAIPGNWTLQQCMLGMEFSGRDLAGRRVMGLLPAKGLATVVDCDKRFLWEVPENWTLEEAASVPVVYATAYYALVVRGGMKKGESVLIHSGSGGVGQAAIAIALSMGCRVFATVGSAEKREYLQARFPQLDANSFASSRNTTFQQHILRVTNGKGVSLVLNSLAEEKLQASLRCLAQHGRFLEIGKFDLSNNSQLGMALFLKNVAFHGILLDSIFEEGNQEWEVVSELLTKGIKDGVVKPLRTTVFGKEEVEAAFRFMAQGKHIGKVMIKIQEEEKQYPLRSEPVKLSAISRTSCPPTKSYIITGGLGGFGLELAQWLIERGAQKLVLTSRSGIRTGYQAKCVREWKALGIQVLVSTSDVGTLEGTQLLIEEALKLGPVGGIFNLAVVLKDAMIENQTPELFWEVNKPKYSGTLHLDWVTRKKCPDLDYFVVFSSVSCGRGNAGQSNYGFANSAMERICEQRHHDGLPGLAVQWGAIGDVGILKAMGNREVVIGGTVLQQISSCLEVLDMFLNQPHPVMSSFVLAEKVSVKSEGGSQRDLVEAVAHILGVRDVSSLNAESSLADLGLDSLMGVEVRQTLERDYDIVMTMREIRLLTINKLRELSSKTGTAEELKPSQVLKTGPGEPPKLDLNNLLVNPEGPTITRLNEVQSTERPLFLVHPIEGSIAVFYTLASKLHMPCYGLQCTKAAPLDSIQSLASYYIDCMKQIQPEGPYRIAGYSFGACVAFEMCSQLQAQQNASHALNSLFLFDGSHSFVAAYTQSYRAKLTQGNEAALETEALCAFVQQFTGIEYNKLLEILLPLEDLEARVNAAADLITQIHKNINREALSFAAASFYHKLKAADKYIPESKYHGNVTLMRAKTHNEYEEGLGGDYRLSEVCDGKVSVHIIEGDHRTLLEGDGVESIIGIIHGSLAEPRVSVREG
RAC-alpha serine/threonine-protein kinase, sequence (P31749 whole entry): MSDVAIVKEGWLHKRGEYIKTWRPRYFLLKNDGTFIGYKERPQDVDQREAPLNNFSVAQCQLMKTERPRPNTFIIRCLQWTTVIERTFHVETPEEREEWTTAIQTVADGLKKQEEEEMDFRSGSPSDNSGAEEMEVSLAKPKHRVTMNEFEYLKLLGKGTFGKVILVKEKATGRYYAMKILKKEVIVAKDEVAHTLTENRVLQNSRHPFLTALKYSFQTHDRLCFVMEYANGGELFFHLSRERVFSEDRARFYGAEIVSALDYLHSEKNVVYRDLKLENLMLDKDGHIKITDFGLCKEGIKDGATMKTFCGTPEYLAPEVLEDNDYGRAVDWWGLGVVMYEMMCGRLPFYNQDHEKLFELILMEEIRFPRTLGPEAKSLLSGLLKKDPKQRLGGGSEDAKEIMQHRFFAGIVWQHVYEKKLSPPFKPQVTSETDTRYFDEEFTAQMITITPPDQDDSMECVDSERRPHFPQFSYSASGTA

CO[C@@H]1[C@H](O[C@H]2C[C@]3(O)O[C@H]([C@@H]2C)[C@H](C)[C@H](OC)/C=C(\C)C[C@H](/C=C/C#C[C@H]2C[C@@H]2Cl)OC(=O)[C@H]3C)O[C@@H](C)[C@H]2NC(=O)O[C@]21C
IC50 (HCT-116): 30 µM

CCCCCCCCCCCC(=O)OCc1cn(C[C@H]2O[C@H](OC)[C@H](O)[C@@H](O)[C@@H]2O)nn1
IC50 (A549 [1]): 21 µM

CCCCCCCCCCCCCC(=O)OCc1cn(C[C@H]2O[C@H](OC)[C@H](O)[C@@H](O)[C@@H]2O)nn1
IC50 (A549 [1]): 21 µM

CC(=O)OC[C@H]1O[C@@H](Oc2cc(C)c(O)cc2C/C=C(\C)CC/C=C(\C)C[C@@H](O)C=C(C)C)[C@H](O)[C@@H](OC(C)=O)[C@H]1OC(C)=O
IC50 (K562): 2.6 mg/L (≈ 4.11 µM)

CCCCCCCCCCCCCCCCCCC/C=C/C(=O)OC[C@H](CO[C@@H]1O[C@H](CO[C@H]2O[C@H](CO)[C@H](O)[C@H](O)[C@H]2O)[C@H](O)[C@H](O)[C@H]1O)OC(=O)CCCCCCCCCCCCCCCCCCC
IC50 (Fatty acid synthase): 15.6 µM

CCCCCCCCCCCCCCCCOC[C@H](CO[C@H]1O[C@H](CNC(=O)CCCc2ccc(N(CCCl)CCCl)cc2)[C@@H](O)[C@H](O)[C@H]1N)OC
IC50 (DU-145): 6 µM | IC50 (JIMT-1): 6 µM | IC50 (MIA PaCa-2): 6 µM | IC50 (PC-3): 6 µM | IC50 (BT-474): 6 µM | IC50 (MDA-MB-231): 6 µM

CC/C=C\C/C=C\C/C=C\CCCCCCCC(=O)OC[C@H](CO[C@@H]1O[C@H](CO[C@H]2O[C@H](CO)[C@H](O)[C@H](O)[C@H]2O)[C@H](O)[C@H](O)[C@H]1O)OC(=O)CCCCCCCCCCCCCCCCC
IC50 (Fatty acid synthase): 15.6 µM

CCCCCCCCCCCCC(=O)OCc1cn(C[C@H]2O[C@H](OC)[C@H](O)[C@@H](O)[C@@H]2O)nn1
IC50 (A549 [1]): 21 µM

CCCCCCCCCOC(=O)O[C@H](COC(=O)CCCCCCCCC)COP(=O)(O)O[C@@H]1[C@H](O)[C@H](OP(=O)(O)O)[C@@H](O)[C@H](O)[C@H]1O
IC50 [2]: > 100 µM

CCCCCCCCCCCCCCCCOC[C@H](CO[C@@H]1O[C@H](CN)[C@@H](O)[C@H](O)[C@H]1N)OC
CC50 (DU-145): 5.2 µM | CC50 (JIMT-1): 3.5 µM | CC50 (MIA PaCa-2): 3.5 µM | CC50 (PC-3): 3.5 µM | CC50 (BT-474): 7.5 µM | CC50 (MDA-MB-231): 3 µM

CCCCCCCCCCCCCCCCOC[C@H](CO[C@H]1O[C@H](CN)[C@@H](O)[C@H](O)[C@H]1NC(=O)CCCc1ccc(N(CCCl)CCCl)cc1)OC
IC50 (DU-145): 6 µM | IC50 (JIMT-1): 6 µM | IC50 (MIA PaCa-2): 6 µM | IC50 (PC-3): 6 µM | IC50 (BT-474): 6 µM | IC50 (MDA-MB-231): 6 µM

CC(=O)OC[C@H]1O[C@@H](Oc2cc(C)c(O)cc2C/C=C(\C)CC/C=C(\C)CCC=C(C)C)[C@H](O)[C@@H](OC(C)=O)[C@H]1OC(C)=O
IC50 (K562): 5.2 mg/L (≈ 8.43 µM)

CC/C=C\C/C=C\C/C=C\CCCCCCCC(=O)OC[C@H](CO[C@@H]1O[C@H](CO[C@H]2O[C@H](CO)[C@H](O)[C@H](O)[C@H]2O)[C@H](O)[C@H](O)[C@H]1O)OC(=O)CCCCCCCCCCCCCCCCCCC
IC50 (Fatty acid synthase): 15.6 µM

CCCCCCCCCC(=O)O[C@H]1[C@H](O[C@@H]2[C@H]3OC(=O)CCCCCCCCC[C@@H](CCCCC)O[C@@H]4O[C@H](CO)[C@@H](O)[C@H](O)[C@H]4O[C@H](O[C@H]2C)[C@@H]3O)O[C@@H](C)[C@H](O[C@@H]2O[C@@H](C)[C@H](OC(=O)[C@@H](C)CC)[C@@H](OC(=O)/C=C/c3ccccc3)[C@H]2O)[C@H]1O[C@@H]1O[C@@H](C)[C@H](O)[C@@H](O)[C@H]1O
IC50 (MCF7): 4.28 µM | IC50 (HeLa): 4.28 µM | IC50 (SGC-7901): 4.28 µM | IC50 (HepG2): 4.28 µM | IC50 (A549 [3]): 4.28 µM

CC(=O)OC[C@H]1O[C@@H](Oc2cc(C)c(O)cc2C/C=C(\C)CC/C=C(\C)CC(=O)CC(C)C)[C@H](O)[C@@H](OC(C)=O)[C@H]1OC(C)=O
IC50 (K562): 8.1 mg/L (≈ 12.8 µM)

CCCCCCCC(=O)O[C@H]1[C@H](O[C@@H]2[C@H]3OC(=O)CCCCCCCCC[C@@H](CCCCC)O[C@@H]4O[C@H](CO)[C@@H](O)[C@H](O)[C@H]4O[C@H](O[C@H]2C)[C@@H]3O)O[C@@H](C)[C@H](O[C@@H]2O[C@@H](C)[C@H](OC(=O)[C@@H](C)CC)[C@@H](OC(=O)/C=C/c3ccccc3)[C@H]2O)[C@H]1O[C@@H]1O[C@@H](C)[C@H](O)[C@@H](O)[C@H]1O
IC50 (MCF7): 4.28 µM | IC50 (HeLa): 4.28 µM | IC50 (SGC-7901): 4.28 µM | IC50 (HepG2): 4.28 µM | IC50 (A549 [3]): 4.28 µM

CCCCCCCCCCCC(=O)OCc1cn(C[C@H]2O[C@H](OC)[C@H](O)[C@@H](O)[C@H]2O)nn1
IC50 (A549 [1]): 21 µM

CCCCCCCCCCCCCCCCCCCC(=O)O[C@H](COC(=O)CCCCCCCCCCCCCCC)CO[C@@H]1O[C@H](CO[C@H]2O[C@H](CO)[C@H](O)[C@H](O)[C@H]2O)[C@H](O)[C@H](O)[C@H]1O
IC50 (Fatty acid synthase): 15.6 µM

CCCCC[C@@H]1CCCCCCCCCC(=O)O[C@H]2[C@@H](O)[C@H](O[C@H]3[C@H](O1)O[C@H](CO)[C@@H](O)[C@@H]3O)O[C@@H](C)[C@@H]2O[C@@H]1O[C@@H](C)[C@H](O[C@@H]2O[C@@H](C)[C@H](OC(=O)[C@@H](C)CC)[C@@H](OC(=O)/C=C/c3ccccc3)[C@H]2O)[C@@H](O[C@@H]2O[C@@H](C)[C@H](O)[C@@H](O)[C@H]2O)[C@H]1OC(=O)[C@@H](C)CC
IC50 (MCF7): 4.28 µM | IC50 (HeLa): 4.28 µM | IC50 (SGC-7901): 4.28 µM | IC50 (HepG2): 4.28 µM | IC50 (A549 [3]): 4.28 µM

CC(=O)OC[C@H]1O[C@@H](Oc2cc(C)c(O)cc2C/C=C(\C)CC/C=C(\C)C[C@H](C=C(C)C)OC(C)=O)[C@H](O)[C@@H](OC(C)=O)[C@H]1OC(C)=O
IC50 (K562): 3.1 mg/L (≈ 4.59 µM)

CCCCCCCCCC(=O)O[C@H]1[C@H](O[C@@H]2[C@H]3OC(=O)CCCCCCCCC[C@@H](CCCCC)O[C@@H]4O[C@H](CO)[C@@H](O)[C@H](O)[C@H]4O[C@H](O[C@H]2C)[C@@H]3O)O[C@@H](C)[C@H](O[C@@H]2O[C@@H](C)[C@H](OC(=O)[C@@H](C)CC)[C@@H](O)[C@H]2O)[C@H]1O[C@@H]1O[C@@H](C)[C@H](O)[C@@H](O)[C@H]1O
IC50 (MCF7): 4.28 µM | IC50 (HeLa): 4.28 µM | IC50 (SGC-7901): 4.28 µM | IC50 (HepG2): 4.28 µM | IC50 (A549 [3]): 4.28 µM

CCCCCCCCCC(=O)O[C@H]1[C@H](O[C@@H]2[C@H]3OC(=O)CCCCCCCCC[C@@H](CCCCC)O[C@@H]4O[C@H](CO)[C@@H](O)[C@H](O)[C@H]4O[C@H](O[C@H]2C)[C@@H]3O)O[C@@H](C)[C@H](O[C@@H]2O[C@@H](C)[C@H](O/C(O)=C(/C)CC)[C@@H](O)[C@H]2OC(=O)/C=C/c2ccccc2)[C@H]1O[C@@H]1O[C@@H](C)[C@H](O)[C@@H](O)[C@H]1O
IC50 (MCF7): 4.28 µM | IC50 (HeLa): 4.28 µM | IC50 (SGC-7901): 4.28 µM | IC50 (HepG2): 4.28 µM | IC50 (A549 [3]): 4.28 µM

COC(C)(C)/C=C/C/C(C)=C/CC/C(C)=C/Cc1cc(O)c(C)cc1O[C@@H]1O[C@H](COC(C)=O)[C@H](OC(C)=O)[C@H](OC(C)=O)[C@H]1O
IC50 (K562): 9.4 mg/L (≈ 14.5 µM)

O=C(O)CCCc1ccc(N(CCCl)CCCl)cc1 [CHLORAMBUCIL]
CC50 (DU-145): > 150 µM | CC50 (JIMT-1): > 150 µM | CC50 (MIA PaCa-2): > 150 µM | CC50 (PC-3): > 150 µM | CC50 (BT-474): > 150 µM | CC50 (MDA-MB-231): > 150 µM

CCCCCCCCCCCCCCCCCC(=O)OCC(COC(=O)CCCCCCCCCCCCCCCCC)O[C@@H]1O[C@H](C(=O)O)[C@@H](O)[C@H](O)[C@H]1O
IC50 [2]: > 100 µM

CC/C=C\C/C=C\C/C=C\CCCCCCCC(=O)O[C@H](COC(=O)CCCCCCCCCCCCCCC)CO[C@@H]1O[C@H](CO[C@H]2O[C@H](CO)[C@H](O)[C@H](O)[C@H]2O)[C@H](O)[C@H](O)[C@H]1O
IC50 (Fatty acid synthase): 15.6 µM

Source: ChEMBL document CHEMBL5260828, “Amphiphilic glycoconjugates as potential anti-cancer chemotherapeutics” (Eur J Med Chem, 2018)
